Publication PMC8116058, “De novo macrocyclic peptides dissect energy coupling of a heterodimeric ABC transporter by multimode allosteric inhibition” (eLife, 2021)
Positions of bridges follow the written chain, without caps; N, C: chain ends. Non-standard residues stand in square brackets, D forms with d. Residues, ends and D or L forms follow the SMILES beside them. *: point of attachment. 5FAM = O=C1OC2(c3ccc(O)cc3Oc3cc(O)ccc32)c2ccc(C(=O)*)cc21; βAla = NCCC(=O)O

Tested on: TmrA^EQB
Test: Nucleotide occlusion, catalytically reduced variant
Type: biochemical, Thermus thermophilus
Settings: CP^F 4 µM; 5 min 45°C
Experimental: Figure 5. […] (A, B) CP6^F (A) or CP13^F (B, 50 nM each) were incubated with increasing concentrations of detergent-solubilized inward-facing TmrAB (in the absence of Mg-ATP) or outward-facing TmrA^EQB, which was trapped with Mg-ATP (1 mM) for 5 min at 45°C as described ([Hofmann et al., 2019]; [Stefan et al., 2020]). Immediately after, the fluorescence anisotropy was assayed at λex/em = 485/520 nm. The difference in fluorescence polarization was normalized to free and fully bound CP^F. Data were fitted by a one-site binding model. […] TmrAB (2 µM each) were mixed with CP^Fs (4 µM), ATP (1 mM, traced with [α^32P]-ATP), and MgCl2 (5 mM) for 5 min at 4°C or 45°C. Cold ATP (10 mM) was added, and freely exchangeable nucleotides were removed by rapid gel filtration. Occluded nucleotides were analyzed by thin layer chromatography and autoradiography. Representative radiograms for independent triplicates are shown. (D) Stably occluded nucleotides, [α^32P]-ATP and [α^32P]-ADP, were quantified by autoradiography. Data were normalized to the vanadate-trapped state. In (A, B, D), mean values ± SD (n = 3) are shown. Figure 5—source data 1. Source Data for Figure 5. Figure 5—figure supplement 1. […] (A) CP^Fs (50 nM each) were incubated with increasing concentrations of detergent-solubilized IF TmrAB in the inward-facing (IF) conformation (absence of Mg-ATP) or TmrA^EQB populated in the outward-facing (OF) conformation, which was trapped in the OF conformation by Mg-ATP (1 mM) after 5 min incubation at 45°C. The difference in fluorescence polarization was normalized to unbound (0%) and 100% bound CP^F. Data were fitted by a one-site binding model. Fluorescence anisotropy was recorded at λex/em = 485/520 nm. […] TmrA^EQB (2 µM) were incubated in the absence and presence of CP^Fs (4 µM each), ATP (1 mM, traced with [α^32P]-ATP), and MgCl2 (5 mM) for 5 min at 4°C or 45°C. Cold ATP (10 mM) was added, and free nucleotides were removed by rapid gel filtration. Occluded nucleotides were analyzed by thin layer chromatography and autoradiography. Representative radiograms for independent triplicates are shown. […] Figure 5—figure supplement 1—source data 1.
We also examined the impact of CP^Fs on the IF-to-OF transition of wild-type TmrAB induced by ATP binding through nucleotide occlusion (stable trapping) as the readout. We induced the IF-to-OF switch with radiotraced [α^32P]-ATP for 5 min at 45°C in the presence and absence of CPs and removed unbound nucleotides by rapid gel filtration. Subsequently, the occluded nucleotides were identified and quantified by thin layer chromatography and autoradiography (Figure 5C, D).
Detergent-solubilized TmrAB (2 µM) were incubated with ATP (1 mM) traced with [α^32P]-ATP (Hartmann Analytic), MgCl2 (5 mM), CP^Fs (4 µM), or orthovanadate (1 mM) for 5 min at 45°C. […]

Row | Compound | Effect on ATP occlusion, TmrA^EQB
1 | CC[C@H](C)[C@@H]1NC(=O)[C@H]([C@@H](C)O)NC(=O)[C@H](CC(C)C)NC(=O)[C@H](Cc2c[nH]c3ccccc23)NC(=O)[C@H](Cc2ccccc2)NC(=O)[C@H](CC(N)=O)NC(=O)[C@H](CCC(=O)O)NC(=O)[C@H](CC(C)C)NC(=O)[C@H](CS)NC(=O)[C@H](Cc2c[nH]cn2)NC(=O)[C@H](CO)NC(=O)[C@@H](Cc2ccc(O)cc2)NC(=O)CSC[C@@H](C(=O)NCC(=O)N[C@@H](CO)C(=O)NCCC(=O)NCCC(=O)N[C@@H](CCCNC(=N)N)C(=O)N[C@@H](CCCCNC(=O)c2ccc3c(c2)C(=O)OC32c3ccc(O)cc3Oc3cc(O)ccc32)C(N)=O)NC(=O)[C@H](CC(C)C)NC1=O [CP6] ({CH2CO}-[dY]SHCLENFWLTILCGS[βAla][βAla]RK(5FAM)-NH2; thioether N-14) | inhibited ATP occlusion
2 | CC(C)C[C@@H]1NC(=O)[C@H](Cc2ccccc2)NC(=O)CNC(=O)[C@H](CO)NC(=O)[C@H](Cc2ccccc2)NC(=O)[C@H](CC(=O)O)NC(=O)[C@@H]2CCCN2C(=O)[C@H]([C@@H](C)O)NC(=O)[C@@H](Cc2ccc(O)cc2)NC(=O)CSC[C@@H](C(=O)NCC(=O)N[C@@H](CO)C(=O)NCCC(=O)NCCC(=O)N[C@@H](CCCNC(=N)N)C(=O)N[C@@H](CCCCNC(=O)c2ccc3c(c2)C(=O)OC32c3ccc(O)cc3Oc3cc(O)ccc32)C(N)=O)NC(=O)[C@H](C)NC(=O)[C@H](CC(N)=O)NC(=O)[C@H](CCCNC(=N)N)NC(=O)[C@H](CC(C)C)NC(=O)[C@H](Cc2ccccc2)NC(=O)[C@H](C)NC1=O [CP12] ({CH2CO}-[dY]TPDFSGFLAFLRNACGS[βAla][βAla]RK(5FAM)-NH2; thioether N-16) | inhibited ATP occlusion
3 | CC[C@H](C)[C@@H]1NC(=O)[C@H](Cc2c[nH]c3ccccc23)NC(=O)[C@H](CC(N)=O)NC(=O)[C@H](C)NC(=O)[C@H](CO)NC(=O)[C@@H]2CCCN2C(=O)[C@H](CC(=O)O)NC(=O)[C@@H](Cc2ccc(O)cc2)NC(=O)CSC[C@@H](C(=O)NCC(=O)N[C@@H](CO)C(=O)NCCC(=O)NCCC(=O)N[C@@H](CCCNC(=N)N)C(=O)N[C@@H](CCCCNC(=O)c2ccc3c(c2)C(=O)OC32c3ccc(O)cc3Oc3cc(O)ccc32)C(N)=O)NC(=O)[C@H]([C@@H](C)O)NC(=O)[C@H](CC(C)C)NC(=O)[C@H](CC(C)C)NC(=O)[C@H](C(C)C)NC(=O)[C@H](CC(C)C)NC1=O [CP13] ({CH2CO}-[dY]DPSANWILVLLTCGS[βAla][βAla]RK(5FAM)-NH2; thioether N-14; C-terminus assumed) | ATP is occluded in the presence or absence
4 | CC(C)[C@@H]1NC(=O)[C@H](Cc2ccccc2)NC(=O)[C@@H]2CCCN2C(=O)[C@H](CC(N)=O)NC(=O)[C@H](Cc2c[nH]c3ccccc23)NC(=O)[C@H](C(C)C)NC(=O)[C@H](Cc2ccc(O)cc2)NC(=O)[C@H](Cc2ccccc2)NC(=O)[C@@H](Cc2ccc(O)cc2)NC(=O)CSC[C@@H](C(=O)NCC(=O)N[C@@H](CO)C(=O)NCCC(=O)NCCC(=O)N[C@@H](CCCNC(=N)N)C(=O)N[C@@H](CCCCNC(=O)c2ccc3c(c2)C(=O)OC32c3ccc(O)cc3Oc3cc(O)ccc32)C(N)=O)NC(=O)[C@H](CCCCN)NC(=O)[C@H](Cc2ccccc2)NC1=O [CP14] ({CH2CO}-[dY]FYVWNPFVFKCGS[βAla][βAla]RK(5FAM)-NH2; thioether N-12; C-terminus assumed) | ATP is occluded in the presence or absence
